Reference: the CheMixHub drug solubility set

Assay: xn = mol fraction of the nth substance listed, in the solute-free solvent

C#CC1(O)C=CC2C3CCC4=CC(=O)CCC4C3CCC21CC (configuration not stated) + CO + O
solubility (g/100 g solution)
Conditions	x2 = 0.05881	x2 = 0.1233	x2 = 0.1942	x2 = 0.2727	x2 = 0.3599	x2 = 0.4576	x2 = 0.5675	x2 = 0.6923	x2 = 0.835
283.15 K	0.314	0.312	0.374	0.434	0.812	1.22	1.5	3.21	3.44
293.15 K	0.435	0.437	0.512	0.594	1.2	1.81	2.45	4.24	5.12
298.15 K	0.503	0.51	0.598	0.692	1.49	2.18	3.09	4.83	6.09
303.15 K	0.578	0.592	0.696	0.804	1.8	2.59	3.85	5.45	7.24
308.15 K	0.66	0.687	0.811	0.932	2.16	3.06	4.78	6.1	8.54
313.15 K	0.746	0.791	0.943	1.08	2.55	3.6	5.87	6.79	9.97
318.15 K	0.838	0.905	1.09	1.25	2.97	4.2	7.12	7.51	11.7
323.15 K	0.934	1.03	1.27	1.44	3.41	4.87	8.61	8.26	13.5

CC1CCC2C(C)C(OC(=O)CCC(=O)O)OC3OC4(C)CCC1C32OO4 (configuration not stated) + CO + O
solubility (g/100 g solution)
Conditions	278.15 K	283.15 K	288.15 K	293.15 K	298.15 K	303.15 K	308.15 K	313.15 K	318.15 K
x2 = 0.05887	0.112	0.144	0.181	0.228	0.276	0.346	0.424	0.514	0.625
x2 = 0.1235	0.366	0.464	0.566	0.693	0.82	0.997	1.19	1.41	1.67
x2 = 0.1941	0.818	0.996	1.2	1.44	1.67	1.99	2.35	2.73	3.17
x2 = 0.2725	1.42	1.69	2	2.36	2.71	3.17	3.68	4.22	4.83
x2 = 0.36	2.09	2.46	2.87	3.34	3.8	4.37	5.01	5.65	6.39
x2 = 0.4579	2.79	3.23	3.73	4.29	4.84	5.49	6.23	6.99	7.79
x2 = 0.5666	3.54	4	4.58	5.22	5.83	6.54	7.36	8.18	9.06
x2 = 0.6924	4.36	4.87	5.46	6.22	6.9	7.65	8.52	9.37	10.3
x2 = 0.8362	5.15	5.63	6.33	7.1	7.82	8.58	9.48	10.4	11.2

CCOC(=O)OC1=C(c2cc(C)ccc2C)C(=O)NC12CCC(OC)CC2 (configuration not stated) + CO + O
solubility (g/100 g solution)
Conditions	278.15 K	283.15 K	288.15 K	293.15 K	298.15 K	303.15 K	308.15 K	313.15 K	318.15 K
x2 = 0.2	0.00416	0.0064	0.0104	0.0162	0.0253	0.0409	0.0592	0.0833	0.132
x2 = 0.4	0.292	0.365	0.473	0.613	0.803	1.07	1.44	1.9	2.64
x2 = 0.6	1.47	1.82	2.22	2.8	3.56	4.5	5.89	7.65	9.83
x2 = 0.8	3.55	4.27	5.22	6.38	8.03	10.1	12.7	15.7	19.2

c1ccc(-c2ccc(C(c3ccccc3)n3ccnc3)cc2)cc1 (configuration not stated) + CO + O
solubility (g/100 g solution)
Conditions	278.15 K	283.15 K	288.15 K	293.15 K	298.15 K	303.15 K	308.15 K	313.15 K	318.15 K
x2 = 0.05881	0.0843	0.114	0.153	0.198	0.236	0.32	0.418	0.51	0.631
x2 = 0.1233	0.301	0.4	0.525	0.671	0.792	1.05	1.35	1.63	1.98
x2 = 0.1942	0.641	0.845	1.1	1.39	1.74	2.21	2.78	3.35	3.94
x2 = 0.2727	0.98	1.28	1.66	2.1	2.5	3.23	4.06	4.89	5.86
x2 = 0.3599	1.23	1.68	2.17	2.73	3.35	4.17	5.19	6.23	7.39
x2 = 0.4576	1.42	1.87	2.41	3.07	3.72	4.76	5.94	7.21	8.64
x2 = 0.5675	1.6	2.11	2.72	3.56	4.38	5.54	6.87	8.37	9.89
x2 = 0.6923	1.81	2.39	3.08	3.95	4.89	6.2	7.71	9.46	11.3
x2 = 0.835	2.04	2.8	3.67	4.72	5.88	7.29	8.87	10.8	12.9

Cc1ncc(CO)c(CO)c1O.Cl + O + CC#N
solubility (g/100 g solution)
Conditions	278.15 K	283.15 K	288.15 K	293.15 K	298.15 K	303.15 K	308.15 K	313.15 K
x2 = 0.3	0.681	0.776	0.889	1.02	1.16	1.3	1.47	1.67
x2 = 0.4	2.06	2.27	2.65	2.92	3.32	3.7	4.04	4.51
x2 = 0.5	3.81	4.09	4.73	5.11	5.79	6.6	7.19	8.12
x2 = 0.6	5.82	6.51	7.44	8.31	9.5	10.3	11.2	12.6
x2 = 0.7	8.18	9.25	10.4	11.8	13.4	14.2	15.5	17.9
x2 = 0.8	10.6	11.9	13.4	15.2	16.6	18.3	20	23.4
x2 = 0.9	11.5	13.3	14.6	17	18.6	20.7	22.7	26.3

Cc1ncc(CO)c(CO)c1O.Cl + O + CC(C)O
solubility (g/100 g solution)
Conditions	278.15 K	283.15 K	288.15 K	293.15 K	298.15 K	303.15 K	308.15 K	313.15 K
x2 = 0.3	0.401	0.512	0.632	0.825	1.01	1.26	1.54	1.89
x2 = 0.4	0.684	0.867	1.11	1.47	1.84	2.34	2.86	3.53
x2 = 0.5	1.35	1.72	2.2	2.8	3.42	4.25	5.16	6.25
x2 = 0.6	2.56	3.18	3.92	4.83	5.89	7.02	8.34	9.79
x2 = 0.7	3.45	4.36	5.42	6.76	8.29	10.1	12	14.3
x2 = 0.8	4.83	6.11	7.62	9.29	11.3	13.4	15.8	18.8
x2 = 0.9	7.31	8.78	10.7	12.7	14.4	16.6	19.7	23.9
